Test results as given in PMC6759758, “Cofactor Selectivity in Methylmalonyl Coenzyme A Mutase, a Model Cobamide-Dependent Enzyme” (mBio, 2019).

Columns and labels:
[1] = test system: S. meliloti cobD::gus Gm^r metH::Tn5 ΔnrdJ pMS03-nrdABEc^+; experiment: MCM-dependent growth of S. meliloti on isoleucine/valine; type: cell-based, Sinorhizobium meliloti; conditions: for EC50 fold higher than CNCbl: MCM-dependent growth; for EC50: OD600 at 145 h, L-isoleucine and L-valine as sole carbon sources, average and SD for five or more biological replicates, read-out: EC50 (concentration required to achieve half of the maximal OD600)
Procedure: Because nrdJ is essential, the E. coli cobamide-independent ribonucleotide reductase encoded by nrdA and nrdB was expressed from the pMS03 plasmid ([143]). The strain was precultured in M9 medium ([144]) (modified concentration of MgSO4: 1 mM) containing 0.1% sucrose, 2 g/liter isoleucine, 2 g/liter valine, 1 g/liter methionine, and 20 μg/ml gentamicin, with shaking at 30°C. After 2 days, cells were washed and diluted to an OD600 of 0.02 into M9 medium containing 4 g/liter isoleucine, 4 g/liter valine, 1 g/liter methionine, 20 μg/ml gentamicin, and cobamides at various concentrations as indicated for each experiment, in 384-well plates. The plates were incubated at 30°C for 145 h in a BioTek Synergy 2 plate reader with linear shaking at 1,140 cpm. OD600 was measured in 1-h increments.

[2] = biological target: T1, SmMCM (methylmalonyl-CoA mutase from S. meliloti) (Rhizobium meliloti, UniProt O86028); experiment: biochemical; type: binding, Sinorhizobium meliloti; conditions: SmMCM 0.2 μM, pH 7.5, 30°C; average and standard deviation for three or more independent experiments; n. d. = binding too weak to determine Kd
T1 construct: made in house; host or cells: E. coli BL21(DE3)pLysS
T1 sequence (O86028 2-712): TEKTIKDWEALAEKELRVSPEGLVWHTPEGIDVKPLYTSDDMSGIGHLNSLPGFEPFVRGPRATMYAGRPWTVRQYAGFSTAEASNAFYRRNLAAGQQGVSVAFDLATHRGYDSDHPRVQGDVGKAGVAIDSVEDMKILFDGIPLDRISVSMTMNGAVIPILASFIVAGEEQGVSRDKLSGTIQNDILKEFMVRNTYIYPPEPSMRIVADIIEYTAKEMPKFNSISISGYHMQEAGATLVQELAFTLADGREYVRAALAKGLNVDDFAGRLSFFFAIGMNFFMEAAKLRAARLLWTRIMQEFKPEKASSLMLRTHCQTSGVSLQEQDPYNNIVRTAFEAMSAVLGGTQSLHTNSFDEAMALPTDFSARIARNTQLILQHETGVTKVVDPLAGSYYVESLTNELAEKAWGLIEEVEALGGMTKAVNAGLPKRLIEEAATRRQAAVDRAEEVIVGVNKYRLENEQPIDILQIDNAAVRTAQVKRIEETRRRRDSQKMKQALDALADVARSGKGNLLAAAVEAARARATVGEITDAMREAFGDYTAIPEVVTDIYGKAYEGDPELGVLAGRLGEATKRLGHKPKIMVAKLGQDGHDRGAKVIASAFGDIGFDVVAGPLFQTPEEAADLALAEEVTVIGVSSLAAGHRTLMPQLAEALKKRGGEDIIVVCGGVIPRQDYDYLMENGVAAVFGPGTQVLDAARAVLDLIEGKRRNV
Procedure: (§1) All steps involving cobamides were conducted in the dark. The plate was centrifuged for 1 min at 3,800 rpm to level the surface of the liquid in each well. The plate was then incubated for 40 min at 30°C to allow binding, with a brief shaking step after 30 min. […] Following incubation, fluorescence emission at 340 nm (5-nm slit width) was measured upon excitation at 282 nm (5-nm slit width) using a Tecan Infinite M1000 Pro plate reader. Fluorescence, normalized to the initial value, was plotted as a function of cobamide concentration, and fitted to the following equation ([134]): F/F0=1+ΔFmax/F0([E]+[L]+Kd)−([E]+[L]+Kd)^2−4[E][L]/2[E] where F is fluorescence, F0 is initial fluorescence, [E] is total enzyme concentration, [L] is total ligand concentration, and Kd is the binding dissociation constant.

EcMCM (E. coli MCM) = biological target: T2, EcMCM (E. coli MCM) (Escherichia coli, UniProt P27253); experiment: Fluorescence binding assay, EcMCM; conditions: read-out: Kd EcMCM; fitted curve, error = standard error of the curve fit
T2 construct: 6xHis (N); made in house; host or cells: E. coli BL21(DE3)
T2 sequence (P27253 whole entry): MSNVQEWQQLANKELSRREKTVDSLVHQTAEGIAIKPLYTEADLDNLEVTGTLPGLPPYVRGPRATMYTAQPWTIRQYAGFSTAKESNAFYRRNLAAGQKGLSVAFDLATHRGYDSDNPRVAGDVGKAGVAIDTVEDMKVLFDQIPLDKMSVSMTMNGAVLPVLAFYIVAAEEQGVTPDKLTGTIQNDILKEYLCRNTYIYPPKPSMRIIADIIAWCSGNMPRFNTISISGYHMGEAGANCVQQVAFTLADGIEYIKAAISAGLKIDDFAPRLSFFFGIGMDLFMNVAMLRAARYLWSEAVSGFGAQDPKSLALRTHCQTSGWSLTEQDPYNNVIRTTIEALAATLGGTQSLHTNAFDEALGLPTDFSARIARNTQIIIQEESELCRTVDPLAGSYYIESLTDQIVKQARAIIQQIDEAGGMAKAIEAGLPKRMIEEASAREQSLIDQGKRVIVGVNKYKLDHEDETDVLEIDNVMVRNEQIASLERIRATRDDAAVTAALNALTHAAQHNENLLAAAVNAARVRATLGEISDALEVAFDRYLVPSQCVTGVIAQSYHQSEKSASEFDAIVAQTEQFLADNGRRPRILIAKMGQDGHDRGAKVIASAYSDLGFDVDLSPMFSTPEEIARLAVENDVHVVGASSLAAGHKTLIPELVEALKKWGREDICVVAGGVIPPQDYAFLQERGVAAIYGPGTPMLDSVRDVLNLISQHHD
Procedure: as §1

VpMCM (V. parvula MCM) = VpMCM (V. parvula MCM) (Veillonella parvula, UniProt A0A124EFR6); experiment: Fluorescence binding assay, VpMCM; conditions: fitted curve, error = standard error of the curve fit; equimolar α and β subunits
VpMCM (V. parvula MCM), sequence (A0A124EFR6 entry or part of it): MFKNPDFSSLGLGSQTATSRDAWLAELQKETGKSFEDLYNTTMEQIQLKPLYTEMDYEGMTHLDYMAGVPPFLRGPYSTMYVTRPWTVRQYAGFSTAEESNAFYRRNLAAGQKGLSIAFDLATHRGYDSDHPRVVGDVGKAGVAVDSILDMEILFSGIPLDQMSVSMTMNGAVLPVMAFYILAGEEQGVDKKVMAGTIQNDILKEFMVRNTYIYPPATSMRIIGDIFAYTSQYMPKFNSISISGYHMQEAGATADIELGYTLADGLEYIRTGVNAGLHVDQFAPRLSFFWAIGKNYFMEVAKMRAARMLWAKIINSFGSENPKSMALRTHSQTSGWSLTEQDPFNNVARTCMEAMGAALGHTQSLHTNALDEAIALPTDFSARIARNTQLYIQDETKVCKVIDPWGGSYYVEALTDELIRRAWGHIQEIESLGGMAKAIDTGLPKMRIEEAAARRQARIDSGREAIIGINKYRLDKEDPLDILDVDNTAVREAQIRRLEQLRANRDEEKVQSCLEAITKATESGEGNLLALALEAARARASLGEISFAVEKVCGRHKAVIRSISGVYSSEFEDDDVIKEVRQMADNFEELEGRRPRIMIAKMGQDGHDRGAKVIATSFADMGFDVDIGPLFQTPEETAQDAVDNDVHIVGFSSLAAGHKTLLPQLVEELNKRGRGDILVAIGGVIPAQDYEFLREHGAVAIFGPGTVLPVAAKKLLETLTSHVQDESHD
Procedure: The α subunit of VpMCM (encoded by Vpar_RS09005) was expressed with an N-terminal 6×His tag from the pET-Duet expression vector in E. coli BL21(DE3). Protein expression was induced with 520 μM IPTG for 6 h at 30°C. The protein was batch purified by nickel affinity and subsequently purified by FPLC using a HiTrapQ column with an NaCl gradient from 50 to 500 mM in […], pH 8.0, 10% glycerol. The β subunit of VpMCM (encoded by Vpar_RS09000) was expressed separately with an N-terminal 6×His tag from the pET-Duet expression vector in E. coli BL21(DE3). […] Purified protein was dialyzed into 25 mM Tris-HCl, pH 8.0, 300 mM NaCl, 10% glycerol, and 1 mM β-mercaptoethanol. Concentration of pure α and β subunits (Fig. S7) was determined by absorbance at 280 nm (A280) using the theoretically calculated extinction coefficients 75,290 M^−1 cm^−1 and 74,260 M^−1 cm^−1, respectively ([125]). Equimolar amounts of α and β subunits were combined during the setup of fluorescence binding assays.
as §1

[3] = biological target: T3, SmMCM (Sinorhizobium meliloti MCM) (Rhizobium meliloti, UniProt O86028); experiment: Thiokinase-coupled spectrophotometric MCM activity assay; type: biochemical; conditions: SmMCM 50 nM reconstituted with 2 μM cobamide; (R)-methylmalonyl-CoA to succinyl-CoA, steady state, 30°C
T3 construct: made in house; host or cells: E. coli BL21(DE3)pLysS
T3 sequence (O86028 2-712): T1 sequence (O86028 2-712)
Procedure: Final concentrations of reagents in the assays were as follows: Tris-phosphate buffer (pH 7.5), 100 mM Tris, 50 mM phosphate; dithionitrobenzoate (DTNB), 400 μM; ADP, 1 mM; MgCl2, 10 mM; (R)-methylmalonyl-CoA, 0 to 4 mM; thiokinase, 5 μM; MCM, 50 nM; and cobamides, 2 μM.
Three separate mixes were prepared, all in 1× Tris-phosphate buffer: an assay mix containing DTNB, ADP, and MgCl2; a substrate mix containing (R)-methylmalonyl-CoA; and an enzyme mix containing thiokinase, MCM, and cobamides. All steps involving cobamides were conducted in the dark. The assay and enzyme mixes were prepared as a master mix and aliquoted into 96-well plates; substrate mixes were prepared in individual wells, in triplicate. All components were incubated at 30°C for 40 min to equilibrate temperature and allow prebinding of cobamides and MCM. After incubation, one replicate at a time, the substrate mix was added to the assay mix, followed by the enzyme mix. Absorbance at 412 nm (A412) was recorded immediately after addition of enzyme and for 1 to 3 min, every 3 s, on a BioTek Synergy 2 plate reader. The increase in A412 in reaction mixtures lacking substrate was subtracted from all readings, to account for reactivity of DTNB with thiols on protein surfaces.

MCM = test system: MCM; parameters: method as in PMID 14235521; conditions: cited from earlier work

Molecule	EC50 [1] [nM]	Kd [2] [nM]	also measured
2-Methyladeninylcobamide [CN[2-MeAde]Cba]	24 ± 9	–	EC50 fold higher than CNCbl [1]: 5 fold
5-Hydroxybenzimidazolylcobamide [CN[5-OHBza]Cba]	400 ± 100	–	–
C/C1=C2/[N-][C@H]([C@H](CC(N)=O)[C@@]2(C)CCC(=O)NC[C@@H](C)OP(=O)([O-])O[C@H]2[C@@H](O)[C@@H](n3cnc4nc(C)nc(N)c43)O[C@@H]2CO)[C@]2(C)N=C(/C(C)=C3N=C(/C=C4N=C1[C@@H](CCC(N)=O)C\4(C)C)[C@@H](CCC(N)=O)[C@]\3(C)CC(N)=O)[C@@H](CCC(N)=O)[C@]2(C)CC(N)=O.[CH2-][C@H]1O[C@@H](n2cnc3c(N)ncnc32)[C@H](O)[C@@H]1O.[Co+3] [Ado[2-MeAde]Cba, 2-Methyladeninylcobamide]	–	1700 ± 700	Kd (EcMCM (E. coli MCM)): 350 ± 40 nM; Kd (VpMCM (V. parvula MCM)): 1500 ± 200 nM
C/C1=C2/[N-][C@H]([C@H](CC(N)=O)[C@@]2(C)CCC(=O)NC[C@@H](C)OP(=O)([O-])O[C@H]2[C@@H](O)[C@@H](n3cnc4cc(C)ccc43)O[C@@H]2CO)[C@]2(C)N=C(/C(C)=C3N=C(/C=C4N=C1[C@@H](CCC(N)=O)C\4(C)C)[C@@H](CCC(N)=O)[C@]\3(C)CC(N)=O)[C@@H](CCC(N)=O)[C@]2(C)CC(N)=O.[CH2-][C@H]1O[C@@H](n2cnc3c(N)ncnc32)[C@H](O)[C@@H]1O.[Co+3] [Ado[5-MeBza]Cba, 5-Methylbenzimidazolylcobamide]	–	100 ± 40	kcat [3]: 12.8 ± 0.5 s⁻¹
C/C1=C2/[N-][C@H]([C@H](CC(N)=O)[C@@]2(C)CCC(=O)NC[C@@H](C)OP(=O)([O-])O[C@H]2[C@@H](O)[C@@H](n3cnc4cccc(N)c43)O[C@@H]2CO)[C@]2(C)N=C(/C(C)=C3N=C(/C=C4N=C1[C@@H](CCC(N)=O)C\4(C)C)[C@@H](CCC(N)=O)[C@]\3(C)CC(N)=O)[C@@H](CCC(N)=O)[C@]2(C)CC(N)=O.[CH2-][C@H]1O[C@@H](n2cnc3c(N)ncnc32)[C@H](O)[C@@H]1O.[Co+3] [Ado[7-AmBza]Cba, 7-Aminobenzimidazolylcobamide]	–	700 ± 100	–
C/C1=C2/[N-][C@H]([C@H](CC(N)=O)[C@@]2(C)CCC(=O)NC[C@@H](C)OP(=O)([O-])O[C@H]2[C@@H](O)[C@@H](n3cnc4cccc(C)c43)O[C@@H]2CO)[C@]2(C)N=C(/C(C)=C3N=C(/C=C4N=C1[C@@H](CCC(N)=O)C\4(C)C)[C@@H](CCC(N)=O)[C@]\3(C)CC(N)=O)[C@@H](CCC(N)=O)[C@]2(C)CC(N)=O.[CH2-][C@H]1O[C@@H](n2cnc3c(N)ncnc32)[C@H](O)[C@@H]1O.[Co+3] [Ado[7-MeBza]Cba, 7-Methylbenzimidazolylcobamide]	–	100 ± 20	–
C/C1=C2/[N-][C@H]([C@H](CC(N)=O)[C@@]2(C)CCC(=O)NC[C@@H](C)OP(=O)([O-])O[C@H]2[C@@H](O)[C@@H](n3cnc4ccccc43)O[C@@H]2CO)[C@]2(C)N=C(/C(C)=C3N=C(/C=C4N=C1[C@@H](CCC(N)=O)C\4(C)C)[C@@H](CCC(N)=O)[C@]\3(C)CC(N)=O)[C@@H](CCC(N)=O)[C@]2(C)CC(N)=O.[CH2-][C@H]1O[C@@H](n2cnc3c(N)ncnc32)[C@H](O)[C@@H]1O.[Co+3] [Ado[Bza]Cba, Benzimidazolylcobamide]	–	400 ± 200	Kd (EcMCM (E. coli MCM)): 1800 ± 200 nM; Kd (VpMCM (V. parvula MCM)): 1400 ± 300 nM; MCM activity in S. meliloti bacteroids (MCM): intermediate
C/C1=C2/[N-][C@H]([C@H](CC(N)=O)[C@@]2(C)CCC(=O)NC[C@@H](C)OP(=O)([O-])O[C@H]2[C@@H](O)[C@@H](Oc3ccc(C)cc3)O[C@@H]2CO)[C@]2(C)N=C(/C(C)=C3N=C(/C=C4N=C1[C@@H](CCC(N)=O)C\4(C)C)[C@@H](CCC(N)=O)[C@]\3(C)CC(N)=O)[C@@H](CCC(N)=O)[C@]2(C)CC(N)=O.[CH2-][C@H]1O[C@@H](n2cnc3c(N)ncnc32)[C@H](O)[C@@H]1O.[Co+3] [Ado[Cre]Cba, para-Cresolylcobamide]	–	50 ± 10	Kd (EcMCM (E. coli MCM)): 620 ± 90 nM; Kd (VpMCM (V. parvula MCM)): 1300 ± 100 nM; kcat [3]: 15 ± 1 s⁻¹
C/C1=C2/[N-][C@H]([C@H](CC(N)=O)[C@@]2(C)CCC(=O)NC[C@@H](C)OP(=O)([O-])O[C@H]2[C@@H](O)[C@@H](Oc3ccccc3)O[C@@H]2CO)[C@]2(C)N=C(/C(C)=C3N=C(/C=C4N=C1[C@@H](CCC(N)=O)C\4(C)C)[C@@H](CCC(N)=O)[C@]\3(C)CC(N)=O)[C@@H](CCC(N)=O)[C@]2(C)CC(N)=O.[CH2-][C@H]1O[C@@H](n2cnc3c(N)ncnc32)[C@H](O)[C@@H]1O.[Co+3] [Ado[Phe]Cba, Phenolylcobamide]	–	200 ± 30	Kd (EcMCM (E. coli MCM)): 1300 ± 200 nM; Kd (VpMCM (V. parvula MCM)): 5000 ± 1000 nM; kcat [3]: 8.3 ± 0.4 s⁻¹
C#N.C/C1=C2/N[C@H]([C@H](CC(N)=O)[C@@]2(C)CCC(=O)NC[C@@H](C)OP(=O)(O)O[C@H]2[C@@H](O)[C@@H](n3cnc4ncnc(N)c43)O[C@@H]2CO)[C@]2(C)N=C(/C(C)=C3N=C(/C=C4N=C1[C@@H](CCC(N)=O)C\4(C)C)[C@@H](CCC(N)=O)[C@]\3(C)CC(N)=O)[C@@H](CCC(N)=O)[C@]2(C)CC(N)=O.[Co] [CN[Ade]Cba, Adeninylcobamide]	350 ± 90	–	–
Benzimidazolylcobamide [CN[Bza]Cba]	27 ± 7	–	EC50 fold higher than CNCbl [1]: 5 fold
Phenolylcobamide [CN[Phe]Cba]	400 ± 100	–	–
Purinylcobamide [CN[Pur]Cba]	600 ± 200	–	–
cyanocobalamin [CNCbl, reference compound]	5 ± 1	–	–
para-Cresolylcobamide [CN[Cre]Cba]	700 ± 100	–	–
